According to patent publication US11180487B2, “Substituted cyanoindoline derivatives as NIK inhibitors” (Janssen Pharmaceutica NV, priority 2016, dated 2021):
Read-outs that look alike come from different tables or passages of the source.

Experiments:
[1] = target: recombinant human NF-kappaB-inducing kinase (NIK/MAP3K14) (Homo sapiens, UniProt Q99558); assay: Inhibition of auto-phosphorylation of recombinant human NIK/MAP3K14 activity (AlphaScreen), Biological Assay A; assay type: biochemical; details: averaged values over all measurements on all batches
Sequence of recombinant human NF-kappaB-inducing kinase (NIK/MAP3K14) (Q99558 whole entry): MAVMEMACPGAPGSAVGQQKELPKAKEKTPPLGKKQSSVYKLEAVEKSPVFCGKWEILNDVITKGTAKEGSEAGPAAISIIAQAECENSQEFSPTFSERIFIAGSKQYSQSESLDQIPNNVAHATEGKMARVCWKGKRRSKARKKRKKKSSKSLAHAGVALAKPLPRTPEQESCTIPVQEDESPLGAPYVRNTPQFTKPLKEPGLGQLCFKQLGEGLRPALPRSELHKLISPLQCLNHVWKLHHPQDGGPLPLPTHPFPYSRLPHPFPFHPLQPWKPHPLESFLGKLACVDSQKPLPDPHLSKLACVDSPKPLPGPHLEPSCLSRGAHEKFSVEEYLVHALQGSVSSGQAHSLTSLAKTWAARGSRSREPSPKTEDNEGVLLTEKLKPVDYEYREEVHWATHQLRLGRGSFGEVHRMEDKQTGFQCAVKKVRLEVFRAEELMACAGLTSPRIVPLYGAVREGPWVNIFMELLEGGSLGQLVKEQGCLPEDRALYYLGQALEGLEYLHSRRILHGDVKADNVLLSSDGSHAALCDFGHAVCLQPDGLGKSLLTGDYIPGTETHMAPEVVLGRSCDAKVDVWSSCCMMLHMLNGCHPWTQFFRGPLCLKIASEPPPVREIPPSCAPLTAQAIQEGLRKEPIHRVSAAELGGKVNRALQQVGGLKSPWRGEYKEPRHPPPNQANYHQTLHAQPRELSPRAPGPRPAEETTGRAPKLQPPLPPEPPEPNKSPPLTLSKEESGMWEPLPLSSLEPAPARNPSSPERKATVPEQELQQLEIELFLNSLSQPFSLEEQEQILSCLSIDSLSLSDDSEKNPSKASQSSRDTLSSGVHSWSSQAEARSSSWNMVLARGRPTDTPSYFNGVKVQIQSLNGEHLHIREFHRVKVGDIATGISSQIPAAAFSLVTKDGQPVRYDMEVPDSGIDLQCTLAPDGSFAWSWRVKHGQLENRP
Procedure, shortened: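 AlphaScreen detection with anti-phospho-IKK Ser176/180 antibody plus Protein A acceptor/glutathione donor beads after 1 h, 25 °C reaction of 0.2 nM GST-tagged kinase, 25 μM ATP and compound. Buffer: 50 mM Tris pH 7.5, MgCl2, EGTA, DTT, vanadate; 1% DMSO. IC50 fitted sigmoidally to % inhibition.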

[2] = system: P-IKKα levels in L363 (NIK translocated multiple myeloma) cells; assay: Effect of compounds on P-IKKα levels in L363 cells (Mesoscale sandwich immuno-assay), Biological Assay B; assay type: cell-based, human; details: 2 hr treatment, averaged values, read-out: Inhibition of pIKKα_L-363 (IC50 (nM))
Procedure, shortened: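 P-IKKα in lysates quantified by Mesoscale sandwich immunoassay after 2 h compound exposure in 1% DMSO, duplicate wells, 8-point 1:3 series. Human L363 cells had been preincubated 24 h with BAFF (1 μg/ml stock). Blank (10 μM ADS125117) subtracted; IC50 fitted sigmoidally to % inhibition of control.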

[3] = system: JJN-3 (NIK translocated) multiple myeloma cells; assay: Antiproliferative activity on JJN-3 multiple myeloma cells (CellTiter-Glo, 96 hr), Biological Assay C; assay type: cell-based, human; details: JJN-3 (NIK translocated) cells, averaged values, read-out: JJN-3 Proliferation inhibition (IC50 (nM))
Procedure, shortened: (§1)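 Growth read-out was CellTiter-Glo luminescence after 96 h compound exposure, given as percent of no-drug control after subtracting a blank of cells read at dosing. Compounds ran as 9-point serial 1:3 dilutions in 0.3% DMSO, duplicate wells, on JJN-3 (15000/well) or KMS12-BM (20000/well) cells in RPMI 1640/10% FCS.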

[4] = system: KMS12-BM (NIK WT) multiple myeloma cells; assay: Antiproliferative activity on KMS12-BM multiple myeloma cells (CellTiter-Glo, 96 hr), Biological Assay C; assay type: cell-based, human; details: averaged values, read-out: KMS-12 Proliferation inhibition (IC50 (nM))
Procedure, shortened: as §1

IC50 [1] [nM] | IC50 ([2]; Homo sapiens, L-363, 2 h) [nM] | IC50 ([3]; Homo sapiens, JJN-3, 96 h) [nM] | IC50 ([4]; Homo sapiens, KMS-12-BM, 96 h) [nM] | melting point [°C] | IC50 [2] [nM] | IC50 [3] [nM] | IC50 [4] [nM] | SMILES
1.8 | 18.2 | ~246 | 1230 | 160 |  |  |  | COc1cc(P(C)(C)=O)ccc1Nc1nccc(-c2cc(C#N)c3c(c2)[C@@](C)(CO)CN3)n1 [Compound 64]
11 | 3.8 | 39 | > 3980 | > 260 |  |  |  | COc1cc(C(=O)NC2CCOCC2)c(Cl)cc1Nc1nccc(-c2cc(C#N)c3c(c2)C(C)(C)CN3)n1 [Compound 108]
7.6 |  |  |  | 239 | 19.1 | 562 | 6170 | Cc1cc(F)c(C(=O)NC2CCN(C)C2)cc1Nc1nccc(-c2cc(C#N)c3c(c2)[C@@](C)(CO)CN3)n1 (single isomer, unassigned) [Compound 167]
13.8 | 3.6 | 182 | ~6920 | 213 |  |  |  | CC(=O)OC[C@@]1(C)CNc2c(C#N)cc(-c3ccnc(Nc4cc(C#N)ccc4C)n3)cc21 [Compound 125]
3 | 5.9 | 251 | 19 | 165 |  |  |  | COCCOc1ccc(C#N)cc1Nc1nccc(-c2cc(C#N)c3c(c2)[C@@](C)(CO)CN3)n1 [Compound 66]
2.8 | 19.1 | 178 | > 10000 | 134 |  |  |  | C[C@]1(CO)CNc2c(C#N)cc(-c3ccnc(Nc4cc(C#N)ccc4CCCCN)n3)cc21 [Compound 184]
2.6 | 20 | 407 | ~8130 | 263 |  |  |  | CC(C)Oc1cc(P(C)(C)=O)ccc1Nc1nccc(-c2cc(C#N)c3c(c2)[C@@](C)(CO)CN3)n1 [Compound 18]
11 | ~269 | 117 | > 10000 | 110 |  |  |  | CCCCc1ccc(C#N)cc1Nc1nccc(-c2cc(C#N)c3c(c2)[C@@](C)(CO)CN3)n1 [Compound 15]
1.5 |  |  |  | 264 | 2.2 | 167 | 9770 | Cc1ccc(C#N)cc1Nc1nccc(-c2cc(C#N)c3c(c2)[C@@](C)(CO)CN3)n1 [Compound 130]
9.1 | 37.2 | 490 | > 10000 | 169 |  |  |  | COCCOc1ccc(Cl)cc1Nc1nccc(-c2cc(C#N)c3c(c2)[C@@](C)(CO)CN3)n1 [Compound 45]
1.6 | 3.1 | 23 | ~851 | 129 |  |  |  | CN1CCC(Oc2ccc(C#N)cc2Nc2nccc(-c3cc(C#N)c4c(c3)[C@@](C)(CO)CN4)n2)CC1 [Compound 223]
2.6 | 5.4 | 54 | > 10000 | 190 |  |  |  | Cc1cc(-c2cnn(C)c2)c(C#N)cc1Nc1nccc(-c2cc(C#N)c3c(c2)[C@@](C)(CO)CN3)n1 [Compound 188]
1.1 | 6.8 | 56 | 479 | 148 |  |  |  | Cc1cc(S(C)(=O)=O)ccc1Nc1nccc(-c2cc(C#N)c3c(c2)[C@@](C)(CO)CN3)n1 [Compound 17]
2.5 | 11.2 | 44 | 302 | 259 |  |  |  | CCS(=O)(=O)N(C)c1cccc(Nc2nccc(-c3cc(C#N)c4c(c3)C(C)(CO)CN4)n2)c1 (stereo not shown) [Compound 240]
3.6 | 1.4 | 17 | 479 | 193 |  |  |  | Cc1c(CN2CC(C)OC(C)C2)cc(C#N)cc1Nc1nccc(-c2cc(C#N)c3c(c2)[C@@](C)(CO)CN3)n1 (stereo partly shown) [Compound 194]
9.8 | 107 | 4270 | ~7940 | 151 |  |  |  | COCCNCc1ccc(C)c(Nc2nccc(-c3cc(C#N)c4c(c3)[C@@](C)(CO)CN4)n2)c1 [Compound 217]
20 | 19.5 | 195 | > 10000 | 181 |  |  |  | C[C@]1(CO)CNc2c(C#N)cc(-c3ccnc(Nc4cc(C#N)ccc4CNC4CC4)n3)cc21 [Compound 225]
